# Experimental data: patent publication US20100311643A1, “USE OF GLP-1 AS A THERAPEUTIC AGENT” (priority 2007, published 2010)
# Test system: drug-resistant Mycobacterium tuberculosis
# Settings: drug-resistant Mycobacterium tuberculosis growth; peptide 10 micrograms per ml; seven days
structure (smiles),measurement,value
CC[C@H](C)[C@H](NC(=O)[C@H](Cc1ccccc1)NC(=O)[C@H](CCC(=O)O)NC(=O)[C@H](CCCCN)NC(=O)[C@H](C)NC(=O)[C@H](C)NC(=O)[C@H](CCC(N)=O)NC(=O)CNC(=O)[C@H](CCC(=O)O)NC(=O)[C@H](CC(C)C)NC(=O)[C@H](Cc1ccc(O)cc1)NC(=O)[C@H](CO)NC(=O)[C@H](CO)NC(=O)[C@@H](NC(=O)[C@H](CC(=O)O)NC(=O)[C@H](CO)NC(=O)[C@@H](NC(=O)[C@H](Cc1ccccc1)NC(=O)[C@@H](NC(=O)CNC(=O)[C@H](CCC(=O)O)NC(=O)[C@H](C)NC(=O)[C@H](Cc1c[nH]cn1)NC(=O)[C@H](CCCNC(=N)N)NC(=O)[C@H](CCC(=O)O)NC(=O)[C@H](Cc1ccccc1)NC(=O)[C@H](CCC(=O)O)NC(=O)[C@H](CC(=O)O)NC(=O)[C@@H](N)Cc1c[nH]cn1)[C@@H](C)O)[C@@H](C)O)C(C)C)C(=O)N[C@@H](C)C(=O)N[C@@H](Cc1c[nH]c2ccccc12)C(=O)N[C@@H](CC(C)C)C(=O)N[C@H](C(=O)N[C@@H](CCCCN)C(=O)NCC(=O)N[C@@H](CCCNC(=N)N)C(=O)NCC(=O)O)C(C)C [GLP-1],% inhibition,0.0%
